Calls of active or inactive are those of the source.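 Rule for the calls: active = caspase luminescence falls with dose and the half-maximal concentration AC50 from the fitted curve is at or below a set limit; inconclusive = flat fit at 30 to 70% signal loss, or invalid fit; inactive = AC50 above the limit, or signal rises instead.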
System: INS-1E cytokine-induced caspase-3/7, Caspase-Glo luminescence, 48 h
Assay: inhibitors of cytokine-induced caspase-3/7 activity, dose response, orthogonal assay for beta-cell apoptosis protection project, INS-1E rat cells, luminescence (AID 463206)

| SMILES | AC50 |
| --- | --- |
| Cc1sc2ncnc(NCC3COc4ccccc4O3)c2c1C (centres undefined) | > 26 µM (inactive) |
| O=[N+]([O-])c1ccc(/C=N/n2cnc3ccccc32)s1 | > 26 µM (inactive) |
| Nc1nonc1-n1nnc(C(=O)N/N=C/c2cc(Br)ccc2O)c1CSC1=NCCS1 | > 26 µM (inactive) |
| COc1ccc(C(=O)/C(=C\c2ccco2)N2C=CC=CC2=C(C#N)C#N)cc1 | > 26 µM (inactive) |
| c1ccc(-c2nnc(-c3ccccn3)nc2NC2CCCCC2)cc1 | > 26 µM (inactive) |
| Cc1ccc(NC2=C/C(=N/S(=O)(=O)c3cccs3)c3ccccc3C2=O)cc1C | > 26 µM (inactive) |
| COc1ccc(CC(=O)Nc2cccc(S(=O)(=O)N3CCCCCC3)c2)cc1OC | > 26 µM (inactive) |
| O=C1C=C(N2CCOCC2)c2ccccc2C1=O | > 26 µM (inactive) |
| COc1ccc(NC(=O)CN(C)C(=O)/C=C/c2ccc(S(=O)(=O)N3CCCCCC3)cc2)cc1 | > 26 µM (inactive) |
| COc1ccc(-c2c[n+]3c(n2-c2ccc(C)cc2)CCCCC3)cc1 | > 26 µM (inactive) |
| CN1/C(=C\C(=O)c2ccco2)C(C)(C)c2ccccc21 | > 26 µM (inactive) |
| O=C(/C(=C/c1ccc(Cl)cc1)c1nc2ccccc2[nH]1)c1ccccc1 | > 26 µM (inactive) |
| N#C/C(=N\Nc1ccc(Cl)cc1)C(=O)c1ccccc1 | > 26 µM (inactive) |
| COc1ccc(-c2c([C@H]3[C@H]4C=CC[C@@H](C)[C@@H]4C(=O)N3Cc3ccccc3)ccc3ccccc23)cc1 | > 26 µM (inactive) |
| CC(NC(=O)C1CCC(C(=O)NC(C)c2ccccc2)CC1)c1ccccc1 (centres undefined) | > 26 µM (inactive) |
| Cc1ccc(C(C)C)c(OCc2ccc(C(=O)N/N=C/c3cccc(O)c3O)cc2)c1 | > 26 µM (inactive) |
| CN1/C(=C\C(=S)NC(=O)c2ccc([N+](=O)[O-])cc2)C(C)(C)c2ccccc21 | > 26 µM (inactive) |
| COc1ccccc1-n1c(-c2ccccc2)c[n+]2c1CCc1ccccc1-2 | > 26 µM (inactive) |
| O=C(N/N=C/c1cc(Br)ccc1O)C(=O)Nc1ccccc1OC(F)(F)C(F)F | > 26 µM (inactive) |
| COc1cccc(/C=N/NC(=O)c2cc3cc([N+](=O)[O-])ccc3s2)c1O | > 26 µM (inactive) |
| Cc1cccn2c(Nc3ccccc3)c(-c3ccccn3)nc12 | > 26 µM (inactive) |
| Cc1ccc(C(=O)O/N=C/c2c(N3CCOCC3)n(C)c3ccccc23)cc1 | > 26 µM (inactive) |
| CC(C)(C)OC(=O)NCc1ccc(NC(=O)c2nc[nH]c2C(=O)NCCNC(=O)c2[nH]cnc2C(=O)Nc2ccc(CNC(=O)OC(C)(C)C)cc2)cc1 | > 26 µM (inactive) |
| O=C(Nc1cccc(C(F)(F)F)c1)Nc1ccc(N2CCCC2)c(S(=O)(=O)Nc2ccccc2Cl)c1 | > 26 µM (inactive) |

| SMILES | AC50 |
| --- | --- |
| Cc1c(C(=O)N(Cc2ccccc2)C(C)C)oc2ccc(S(=O)(=O)N3CCOCC3)cc12 | > 26 µM (inactive) |
| CNC[C@@H](CC1CCCCC1)NC[C@H](CC(C)C)NCCc1cccc(C(F)(F)F)c1 | > 26 µM (inactive) |
| O=C(NCCc1cn2ccccc2n1)c1cc(COc2ccc3ncccc3c2)on1 | > 26 µM (inactive) |
| O=C(NC1=C(Nc2ccc(F)cc2)C(=O)c2ccccc2C1=O)c1ccc(Cl)cc1 | > 26 µM (inactive) |
| COc1ccc(-c2nn(-c3ccccc3)cc2/C=N/Nc2ccc3ccccc3n2)cc1OC | > 26 µM (inactive) |
| C/C(=N\NC(=O)c1cc2ccccc2cc1O)c1ccccn1 | > 26 µM (inactive) |
| COc1ccccc1C(=O)Nc1nc2ccccc2[nH]1 | > 26 µM (inactive) |
| Oc1ccc(N=Nc2ccccc2C(F)(F)F)c2cccnc12 | > 26 µM (inactive) |
| Cc1sc2ncnc(N3CCN(CCOc4ccc(Cl)cc4)CC3)c2c1C | > 26 µM (inactive) |
| COc1cc(C(=O)N/N=C(\c2ccccc2)c2ccccn2)cc(OC)c1OC | > 26 µM (inactive) |
| CN(C)c1cc[n+](Cc2c(Cl)cccc2Cl)cc1 | > 26 µM (inactive) |
| O=C(c1ccccc1)C(CCC(CN1CCOCC1)C(=O)c1ccccc1)CN1CCOCC1 (centres undefined) | > 26 µM (inactive) |
| Cc1cc(C(=O)C(C)OC(=O)c2ccc(NC(=O)CC#N)cc2)c(C)n1-c1ccc(OC(F)F)cc1 (centres undefined) | > 26 µM (inactive) |
| Cc1cc(-c2ccccc2)cc(-c2ccccc2)[n+]1CCc1ccccc1 | > 26 µM (inactive) |
| CC1(C)CC(=O)C2=C(C1)OC1=C(C(=O)CC(C)(C)C1)C2c1ccc(O)cc1O | > 26 µM (inactive) |
| Cc1nnsc1-c1onc(C)c1C(=O)Nc1cc(Cl)cc(Cl)c1 | > 26 µM (inactive) |
| CCCCCCCCCCCCCCCC[N+](C)(C)CC | > 26 µM (inactive) |
| CC(C)(C)OC(=O)NCc1ccc(NC(=O)c2nc[nH]c2C(=O)NCCCCNC(=O)c2[nH]cnc2C(=O)Nc2ccc(CNC(=O)OC(C)(C)C)cc2)cc1 | > 26 µM (inactive) |
| CCOC(=O)c1cnc(-n2nc(C)cc2C)nc1NNc1cc(C)nc(-c2ccccc2)n1 | > 26 µM (inactive) |
| CCCNC(=O)c1c(N)n(-c2cccc(OC)c2)c2nc3ccccc3nc12 | > 26 µM (inactive) |
| Cn1cc(CNCc2ccc(OC(F)(F)F)cc2)c(-c2ccc3c(c2)OCCO3)n1 | > 26 µM (inactive) |
| CCN(C1CCCCC1)S(=O)(=O)c1ccc(S(=O)(=O)NCc2ccncc2)cc1 | > 26 µM (inactive) |
| Cc1nc(N/N=C/c2ccccn2)sc1C | > 26 µM (inactive) |
| CCCCC(=O)NC(c1ccc(N(CC)CC)cc1)c1ccc2cccnc2c1O (centres undefined) | > 26 µM (inactive) |

| SMILES | AC50 |
| --- | --- |
| Cc1cccc(/C=N/NC(=O)c2c(-c3ccccc3)noc2C)c1O | > 26 µM (inactive) |
| CCc1cc(SC#N)cc(C)c1NC(=O)CCl | > 26 µM (inactive) |
| O=C(NC1=C(Nc2ccc(Cl)cc2)C(=O)c2ccccc2C1=O)c1ccccc1 | > 26 µM (inactive) |
| CCN(CC)c1ccc(/C=N/NC(=O)CNC(=O)C2COc3ccccc3O2)c(O)c1 (centres undefined) | > 26 µM (inactive) |
| Cc1cccc2sc(NNC(=O)c3ccc(S(=O)(=O)N4CC(C)CC(C)C4)cc3)nc12 (centres undefined) | > 26 µM (inactive) |
| Nc1cc2c3c(cccc3c1)C(=O)N(CCN1CCCC1)C2=O | 15.4 µM |
| Cc1ccc(C2=CC(c3ccc(N(C)C)cc3)n3nnnc3N2)cc1 (centres undefined) | > 26 µM (inactive) |
| Cc1cccc(NC2=C(NC(=O)c3ccccc3)C(=O)c3ccccc3C2=O)c1 | > 26 µM (inactive) |
| FC(F)(F)c1cnc(NNC(=S)Nc2ccccc2Cl)c(Cl)c1 | > 26 µM (inactive) |
| CCCCCCCCCCOC(=O)Cn1c(COc2ccccc2)[n+](C)c2ccccc21 | > 26 µM (inactive) |
| CC(=O)c1ccc(NC(=S)NC(C)c2ccc(Cl)cc2Cl)cc1 (centres undefined) | > 26 µM (inactive) |
| Cc1ccc(O)c(CNc2cccc3cccnc23)c1 | > 12 µM (inactive) |
| O=C(Nc1nc(-c2ccccn2)cs1)c1cc(Cl)ccc1[N+](=O)[O-] | > 26 µM (inactive) |
| CCC(=O)NC(c1ccccc1OC)c1ccc2cccnc2c1O (centres undefined) | > 26 µM (inactive) |
| O=C(Nc1nc2ccc(F)cc2s1)c1ccccn1 | > 26 µM (inactive) |
| CCN1CCN(c2ccc(S(=O)(=O)N3CCCCC3)cc2NC(=O)c2ccc([N+](=O)[O-])s2)CC1 | > 26 µM (inactive) |
| CCCCCCCC[n+]1c(C)n(-c2ccccc2)c2ccc(NC(C)=O)cc21 | > 26 µM (inactive) |
| Oc1c(Br)cc(Br)cc1/C=N/NC(=S)N[C@H]1CC2C=CC1C2 (some centres undefined) | > 26 µM (inactive) |
| C/C(=N\NC(=O)COc1ccccc1-c1ccccc1)c1ccccn1 | > 26 µM (inactive) |
| Cc1ccn2c(Nc3ccccc3)c(-c3ccccn3)nc2c1 | > 26 µM (inactive) |
| O=C(CNC(=O)c1ccccc1O)N/N=C/c1cc(Br)ccc1OC(=O)/C=C/c1ccco1 | > 26 µM (inactive) |
| O=C(/C=C/c1ccc(-c2ccccc2)cc1)NCc1cccnc1 | > 26 µM (inactive) |
| Cc1ccc(O)c(NC(=S)NC(=O)c2ccc(-c3ccc(Cl)cc3)o2)c1 | > 26 µM (inactive) |
| COc1cccc(/C=N/Nc2cc(N3CCOCC3)ncn2)c1O | > 26 µM (inactive) |

| SMILES | AC50 |
| --- | --- |
| Cc1ccc2[nH]c(C(=O)N/N=C/c3ccccc3O)c(C)c2c1 | > 26 µM (inactive) |
| CCN(Cc1ccccc1)C(c1ccc(C(F)(F)F)cc1)c1nnnn1C(C)(C)C (centres undefined) | > 26 µM (inactive) |
| C/C(=N\NC(=O)c1cccc(Br)c1)c1ccccn1 | > 26 µM (inactive) |
| CCOc1ccccc1NC(=O)C(=O)N/N=C/c1cc(Br)ccc1O | > 26 µM (inactive) |
| Cc1cc(C)n(-c2nc(NCCO)c3c4c(sc3n2)CCCC4)n1 | > 26 µM (inactive) |
| O=C(NCc1cccnc1)C(=O)Nc1nc(C23CC4CC(CC(C4)C2)C3)cs1 | > 26 µM (inactive) |
| Cc1ccccc1Oc1cc(NC(=O)CCCn2nc(C)c([N+](=O)[O-])c2C)cc([N+](=O)[O-])c1 | > 26 µM (inactive) |
| CCOc1cc(/C=N/Nc2cc(C)nc(-n3nc(C)cc3C)n2)ccc1O | > 26 µM (inactive) |
| CCC(CO)Oc1cc(NCc2ccc(C)c(C)c2)c2ncn(C(C)C)c2c1 (centres undefined) | > 26 µM (inactive) |
| CCOc1ccc(-n2c(-c3ccc(OC)cc3)c[n+]3c2CCCCC3)cc1 | > 26 µM (inactive) |
| COc1cc(NC(=O)c2[nH]cnc2C(N)=O)cc(C(=O)Nc2cccc(C(F)(F)F)c2)c1 | > 26 µM (inactive) |
| N=c1c2c(n(Cc3ccc(Cl)cc3Cl)c3c1CCC3)CCCC2 | > 26 µM (inactive) |
| Cc1ccc2c(c1)N(C(=O)CCC(=O)NCCCN1CCC(Cc3ccccc3)CC1)CCO2 | 10.8 µM |
| CC(=O)Nc1sc2c(c1-c1nc3ccccc3s1)CCN(C(C)C)C2 | 3.1 µM |
| CC(=O)c1c(C)[nH]c(C(=O)OCc2cccc(Cl)c2)c1C | > 12 µM (inactive) |
| Oc1cccc(/C=N/NC(=S)Nc2cccnc2)c1O | > 26 µM (inactive) |
| CC1=[N+](C)c2ccc3ccccc3c2C1(C)C | > 26 µM (inactive) |
| CCOC(=O)C1=C(CCc2ccccc2)NC(=O)NC1c1ccc2ccccc2c1 (centres undefined) | > 26 µM (inactive) |
| O=C(Nc1ccc([N+](=O)[O-])cc1)Nc1ccc(Cl)cc1F | > 26 µM (inactive) |
| COc1ccc(-n2c(-c3ccc(Br)cc3)c[n+]3c2CCCCC3)cc1 | > 26 µM (inactive) |
| CC(=O)c1cccc(N=c2scc(-c3ccc(S(=O)(=O)N4CCOCC4)cc3)n2CCO)c1 | > 26 µM (inactive) |
| O=C(c1ccc(Cl)cc1)C(CN1CCCCC1)c1ccccc1 (centres undefined) | > 26 µM (inactive) |
